Earlier results on one compound are cited in patent publication US20160000720A1, “Pharmaceutical compositions comprising Tadalafil” (AUROBINDO PHARMA LIMITED, priority 2013, published 2016).

Each structure is given as a SMILES string.

As for `CN1CC(=O)N2[C@H](c3ccc4c(c3)OCO4)c3[nH]c4ccccc4c3C[C@@H]2C1=O` [Tadalafil, (6R,12aR)-6-(1,3-benzodioxol-5-yl)-2,3,6,7,12,12a hexa hydro-2-methylpyrazino[1′,2′:1,6]pyrido[3,4-b]indole-1,4-dione], the “solubility in water (in words)” value is given as “practically insoluble in water”. Besides, where the note is “according to WO 01/08687”, the “soluble in water in a concentration up to” value is reported as “up to 2 μg/ml”.
